In US20240294541A1, “COMPOUNDS CONSTITUTING C20-MODIFIED SALINOMYCIN DERIVATIVES, A METHOD FOR OBTAINING THE SAME, A COMPOSITION CONTAINING THE SAME AND A USE OF SAID COMPOUNDS” (FILECLO SPOLKA Z OGRANICZONA ODPOWIEDZIALNOSCIA, priority 2021, published 2024):

Legend:
Format in all cases: cell-based
[1] = system: A2780Cis (cisplatin-resistant human ovarian cancer); experiment: In vitro cytotoxicity, SRB assay, A2780Cis; conditions: for IC50: Homo sapiens, A2780cis, read-out: IC50 (nM) A2780Cis
[2] = system: BALB/3T3 (normal mouse fibroblasts); experiment: In vitro cytotoxicity, SRB assay, normal BALB/3T3 fibroblasts; conditions: Table 5; BALB/3T3 normal mouse fibroblasts; read-out: IC50 (nM) BALB3T3 normal cells
[3] = system: MV-4-11 (human biphenotypic leukaemia); experiment: In vitro cytotoxicity, MTT assay, MV-4-11; conditions: for IC50: Homo sapiens, MV4-11, read-out: IC50 (nM) MV4-11
[4] = system: PLC/PRF/5 (human liver cancer); experiment: cells; conditions: Table 4; PLC/PRF/5 human liver cancer cells; read-out: IC50 (nM) PLC/PRF/5
[5] = system: MIA PaCa-2 (human pancreatic cancer); experiment: cells; conditions: Table 4; MIA PaCa-2 human pancreatic cancer cells; read-out: IC50 (nM) MIA PaCa-2
Hs294T (human melanoma) = experiment: cells; conditions: Hs 294T; Table 4; Hs294T human melanoma cells; read-out: IC50 (nM) Hs294T

SMILES | SI A2780Cis [1] | IC50 [1] [nM] | IC50 [2] [nM] | SI MV4-11 [3] | IC50 [3] [nM] | IC50 [4] [nM] | IC50 [5] [nM] | IC50 (Hs294T (human melanoma)) [nM]
CC[C@@H](C(=O)[C@@H](C)[C@@H](O)[C@H](C)[C@@H]1O[C@@H]([C@@H](CC)C(=O)O)CC[C@@H]1C)[C@H]1O[C@]2(C=C[C@@H](NC(=O)OCCN(C)C)[C@]3(CC[C@@](C)([C@H]4CC[C@](O)(CC)[C@H](C)O4)O3)O2)[C@H](C)C[C@@H]1C [FLC-00497-1•Na] | 8.2 | 278 | 2280 | 8.2 | 278 |  |  | 
CC[C@@H](C(=O)[C@@H](C)[C@@H](O)[C@H](C)[C@@H]1O[C@@H]([C@@H](CC)C(=O)O)CC[C@@H]1C)[C@H]1O[C@]2(C=C[C@@H](NC(=O)NCCCOC)[C@]3(CC[C@@](C)([C@H]4CC[C@](O)(CC)[C@H](C)O4)O3)O2)[C@H](C)C[C@@H]1C [FLC-00539-1•Na] | 46.1 | 7.06 | 326 | 11.9 | 27.3 |  |  | 
C#CC(C)(C)OC(=O)N[C@@H]1C=C[C@]2(O[C@H]([C@@H](CC)C(=O)[C@@H](C)[C@@H](O)[C@H](C)[C@@H]3O[C@@H]([C@@H](CC)C(=O)O)CC[C@@H]3C)[C@@H](C)C[C@H]2C)O[C@@]12CC[C@@](C)([C@H]1CC[C@](O)(CC)[C@H](C)O1)O2 [FLC-00552-1•Na] | 46.7 | 4.02 | 187 | 32.1 | 5.84 |  |  | 
CC[C@@H](C(=O)[C@@H](C)[C@@H](O)[C@H](C)[C@@H]1O[C@@H]([C@@H](CC)C(=O)O)CC[C@@H]1C)[C@H]1O[C@]2(C=C[C@@H](NC(=O)N3CCOCC3)[C@]3(CC[C@@](C)([C@H]4CC[C@](O)(CC)[C@H](C)O4)O3)O2)[C@H](C)C[C@@H]1C [FLC-00540-1•Na] | 24.1 | 37 | 891 | 16.5 | 53.9 |  |  | 
CC[C@@H](C(=O)[C@@H](C)[C@@H](O)[C@H](C)[C@@H]1O[C@@H]([C@@H](CC)C(=O)O)CC[C@@H]1C)[C@H]1O[C@]2(C=C[C@@H](NC(=O)N3CCS(=O)(=O)CC3)[C@]3(CC[C@@](C)([C@H]4CC[C@](O)(CC)[C@H](C)O4)O3)O2)[C@H](C)C[C@@H]1C [FLC-00560-1•Na] | 18.8 | 283 | 5330 | 15.7 | 339 |  |  | 
CC[C@@H](C(=O)[C@@H](C)[C@@H](O)[C@H](C)[C@@H]1O[C@@H]([C@@H](CC)C(=O)O)CC[C@@H]1C)[C@H]1O[C@]2(C=C[C@@H](NC(=O)OC3CCOCC3)[C@]3(CC[C@@](C)([C@H]4CC[C@](O)(CC)[C@H](C)O4)O3)O2)[C@H](C)C[C@@H]1C [FLC-00580-1•Na] | 94.4 | 2.24 | 211 | 32.5 | 6.51 |  |  | 
CC[C@@H](C(=O)[C@@H](C)[C@@H](O)[C@H](C)[C@@H]1O[C@@H]([C@@H](CC)C(=O)O)CC[C@@H]1C)[C@H]1O[C@]2(C=C[C@@H](NC(=O)OC(C)(C)C#N)[C@]3(CC[C@@](C)([C@H]4CC[C@](O)(CC)[C@H](C)O4)O3)O2)[C@H](C)C[C@@H]1C [FLC-00551-1•Na] | 12.5 | 63.6 | 792 | 9.8 | 81 |  |  | 
CC[C@@H](C(=O)[C@@H](C)[C@@H](O)[C@H](C)[C@@H]1O[C@@H]([C@@H](CC)C(=O)O)CC[C@@H]1C)[C@H]1O[C@]2(C=C[C@@H](NC(=O)OCCC(C)(C)O)[C@]3(CC[C@@](C)([C@H]4CC[C@](O)(CC)[C@H](C)O4)O3)O2)[C@H](C)C[C@@H]1C [FLC-00577-1•Na] | 30.0 | 29.1 | 874 | 20.4 | 42.8 |  |  | 
CC[C@@H](C(=O)[C@@H](C)[C@@H](O)[C@H](C)[C@@H]1O[C@@H]([C@@H](CC)C(=O)O)CC[C@@H]1C)[C@H]1O[C@]2(C=C[C@@H](NC(=O)N3CCN(S(C)(=O)=O)C3=O)[C@]3(CC[C@@](C)([C@H]4CC[C@](O)(CC)[C@H](C)O4)O3)O2)[C@H](C)C[C@@H]1C [FLC-00519-1•Na] | 5.3 | 1190 | 6370 | 4.0 | 1590 |  |  | 
CC[C@@H](C(=O)[C@@H](C)[C@@H](O)[C@H](C)[C@@H]1O[C@@H]([C@@H](CC)C(=O)O)CC[C@@H]1C)[C@H]1O[C@]2(C=C[C@@H](NC(=O)C(=O)NCCO)[C@]3(CC[C@@](C)([C@H]4CC[C@](O)(CC)[C@H](C)O4)O3)O2)[C@H](C)C[C@@H]1C [FLC-00438-1•Na] |  | 2900 |  |  | 2500 | 7280 | 6460 | 
CC[C@@H](C(=O)[C@@H](C)[C@@H](O)[C@H](C)[C@@H]1O[C@@H]([C@@H](CC)C(=O)O)CC[C@@H]1C)[C@H]1O[C@]2(C=C[C@@H](NC(=O)C(=O)NCCN)[C@]3(CC[C@@](C)([C@H]4CC[C@](O)(CC)[C@H](C)O4)O3)O2)[C@H](C)C[C@@H]1C [FLC-00456-1•Na] |  | 2850 |  |  | 3430 | 7290 |  | 8690
CC[C@@H](C(=O)[C@@H](C)[C@@H](O)[C@H](C)[C@@H]1O[C@@H]([C@@H](CC)C(=O)O)CC[C@@H]1C)[C@H]1O[C@]2(C=C[C@@H](NC(=O)C(=O)NCc3ccncc3)[C@]3(CC[C@@](C)([C@H]4CC[C@](O)(CC)[C@H](C)O4)O3)O2)[C@H](C)C[C@@H]1C [FLC-00489-1•Na] | 28.0 | 175 | 4920 | 14.6 | 338 |  |  | 
CC[C@@H](C(=O)[C@@H](C)[C@@H](O)[C@H](C)[C@@H]1O[C@@H]([C@@H](CC)C(=O)O)CC[C@@H]1C)[C@H]1O[C@]2(C=C[C@@H](NC(=O)OCCCCl)[C@]3(CC[C@@](C)([C@H]4CC[C@](O)(CC)[C@H](C)O4)O3)O2)[C@H](C)C[C@@H]1C [FLC-00530-1•Na] | 24.0 | 2.6 | 62.5 | 9.7 | 6.42 |  |  | 
CC[C@@H](C(=O)[C@@H](C)[C@@H](O)[C@H](C)[C@@H]1O[C@@H]([C@@H](CC)C(=O)O)CC[C@@H]1C)[C@H]1O[C@]2(C=C[C@@H](NC(=O)C(=O)NCCN3CCOCC3)[C@]3(CC[C@@](C)([C@H]4CC[C@](O)(CC)[C@H](C)O4)O3)O2)[C@H](C)C[C@@H]1C [FLC-00465-1•Na] |  | 3070 |  |  | 3170 |  |  | 
CC[C@@H](C(=O)[C@@H](C)[C@@H](O)[C@H](C)[C@@H]1O[C@@H]([C@@H](CC)C(=O)O)CC[C@@H]1C)[C@H]1O[C@]2(C=C[C@@H](NC(=O)N3CCN(C)CC3)[C@]3(CC[C@@](C)([C@H]4CC[C@](O)(CC)[C@H](C)O4)O3)O2)[C@H](C)C[C@@H]1C [FLC-00515-1•Na] | 10.6 | 357 | 3790 | 9.5 | 400 |  |  | 
CC[C@@H](C(=O)[C@@H](C)[C@@H](O)[C@H](C)[C@@H]1O[C@@H]([C@@H](CC)C(=O)O)CC[C@@H]1C)[C@H]1O[C@]2(C=C[C@@H](NC(=O)C(=O)NCCN(C)C)[C@]3(CC[C@@](C)([C@H]4CC[C@](O)(CC)[C@H](C)O4)O3)O2)[C@H](C)C[C@@H]1C [FLC-00471-1•Na] |  | 4290 |  |  | 4730 |  |  | 
CC[C@@H](C(=O)[C@@H](C)[C@@H](O)[C@H](C)[C@@H]1O[C@@H]([C@@H](CC)C(=O)O)CC[C@@H]1C)[C@H]1O[C@]2(C=C[C@@H](NC(=O)C(=O)NCCCn3ccnc3)[C@]3(CC[C@@](C)([C@H]4CC[C@](O)(CC)[C@H](C)O4)O3)O2)[C@H](C)C[C@@H]1C [FLC-00392-1•Na] |  | 3750 |  |  | 1960 | 8330 |  | 
CCCCCCCCCCCCCCCCOC(=O)N[C@@H]1C=C[C@]2(O[C@H]([C@@H](CC)C(=O)[C@@H](C)[C@@H](O)[C@H](C)[C@@H]3O[C@@H]([C@@H](CC)C(=O)O)CC[C@@H]3C)[C@@H](C)C[C@H]2C)O[C@@]12CC[C@@](C)([C@H]1CC[C@](O)(CC)[C@H](C)O1)O2 [FLC-00410-1•Na] |  | 7700 |  |  | 3740 |  |  | 
CC[C@@H](C(=O)[C@@H](C)[C@@H](O)[C@H](C)[C@@H]1O[C@@H]([C@@H](CC)C(=O)O)CC[C@@H]1C)[C@H]1O[C@]2(C=C[C@@H](NC(=O)c3cc(OC)c(OC)c(OC)c3)[C@]3(CC[C@@](C)([C@H]4CC[C@](O)(CC)[C@H](C)O4)O3)O2)[C@H](C)C[C@@H]1C [FLC-00573-1•Na] |  |  | 1880 |  | 158 |  |  | 
CC[C@@H](C(=O)[C@@H](C)[C@@H](O)[C@H](C)[C@@H]1O[C@@H]([C@@H](CC)C(=O)O)CC[C@@H]1C)[C@H]1O[C@]2(C=C[C@@H](NC(=O)N3CCN(CC)C(=O)C3=O)[C@]3(CC[C@@](C)([C@H]4CC[C@](O)(CC)[C@H](C)O4)O3)O2)[C@H](C)C[C@@H]1C [FLC-00518-1•Na] |  | 3220 |  |  | 3490 |  |  | 
CC[C@@H](C(=O)[C@@H](C)[C@@H](O)[C@H](C)[C@@H]1O[C@@H]([C@@H](CC)C(=O)O)CC[C@@H]1C)[C@H]1O[C@]2(C=C[C@@H](NC(=O)N(C)CCCN(C)C)[C@]3(CC[C@@](C)([C@H]4CC[C@](O)(CC)[C@H](C)O4)O3)O2)[C@H](C)C[C@@H]1C [FLC-00563-1•Na] |  | 3120 |  |  | 3250 |  |  | 
CC[C@@H](C(=O)[C@@H](C)[C@@H](O)[C@H](C)[C@@H]1O[C@@H]([C@@H](CC)C(=O)O)CC[C@@H]1C)[C@H]1O[C@]2(C=C[C@@H](NC(=O)NCCCN(C)C)[C@]3(CC[C@@](C)([C@H]4CC[C@](O)(CC)[C@H](C)O4)O3)O2)[C@H](C)C[C@@H]1C [FLC-00562-1•Na] |  | 3010 |  |  | 3070 |  |  | 
